The compounds below were run against SARS-CoV-2 3CLpro (Severe acute respiratory syndrome coronavirus 2, UniProt P0DTD1) (assay: biochemical). Details: IC50 (μM), SARS-CoV-2 3CLPro assay.

In order of falling IC50:
1. CC(C)C[C@H](NC(=O)OCc1ccccc1)C(=O)NN(CCC(N)=O)C(=O)[C@H](F)Cl (single isomer, unassigned) [Example 17-B]  0.077 µM
2. CC(C)C[C@H](NC(=O)c1cc2ccccc2[nH]1)C(=O)NN(C[C@@H]1CCNC1=O)C(=O)CF (single isomer, unassigned) [Example 38-A]  0.074 µM
3. CC(C)C[C@H](NC(=O)c1nc2ccccc2[nH]1)C(=O)NN(CCC(N)=O)C(=O)[C@@H](F)Cl (single isomer, unassigned) [Example 63-A]  0.043 µM
4. Cc1cc(C(=O)N[C@@H](CC(C)C)C(=O)NN(CCC(N)=O)C(=O)CCl)no1 [Example 29]  0.034 µM
5. NC(=O)CCN(NC(=O)[C@H](CC1CCC1)NC(=O)c1nc2ccccc2[nH]1)C(=O)C(F)Cl (mixture of isomers) [Example 66, N-[rac-(1S)-2-[2-(3-amino-3-oxo-propyl)-2-(2-chloro-2-fluoro-acetyl)hydrazino]-1-(cyclobutylmethyl)-2-axo-ethyl]-1H-benzimidazole-2-carboxamide]  0.034 µM
6. CC(C)C[C@H](NC(=O)c1cc2ccccc2[nH]1)C(=O)NN(CCC(N)=O)C(=O)[C@H](F)Cl (single isomer, unassigned) [Example 41-B]  0.034 µM
7. CC(C)C[C@H](NC(=O)/C=C/c1ccccc1)C(=O)NN(CCC(N)=O)C(=O)[C@@H](F)Cl (single isomer, unassigned) [Example 86-B]  0.023 µM
8. NC(=O)CCN(NC(=O)[C@H](CC1CC1)NC(=O)c1cc2ccccc2[nH]1)C(=O)C(F)Cl (mixture of isomers) [Example 62, N-[rac-(1S)-2-[2-(3-amino-3-oxo-propyl)-2-(2-chloro-2-fluoro-acetyl)hydrazino]-1-(cyclopropylmethyl)-2-axo-ethyl]-1H-indole-2-carboxamide]  0.017 µM
9. NC(=O)CCN(NC(=O)[C@H](CC1CCCCC1)NC(=O)OCc1ccccc1)C(=O)[C@H](F)Cl (single isomer, unassigned) [Example 16-B]  0.002 µM

Same assay, conditions: read-out: IC50 (μM), SARS-CoV-2 3CLPro assay

In order of falling IC50:
1. NC(=O)CCN(NC(=O)CNC(=O)OCc1ccccc1)C(=O)CCl [Example 1, Benzyl N-[2-[2-(3-amino-3-oxo-propyl)-2-(2-chloroacetyl)hydrazino]-2-axo-ethyl]carbamate]  4.59 µM
2. CC(C)C[C@H](NC(=O)OC(C)(C)C)C(=O)NN(CCC(N)=O)C(=O)CCl [Example 26, tert-Butyl N-[(1S)-1-[[(3-amino-3-oxo-propyl)-(2-chloroacetyl)amino]carbamoyl]-3-methyl-butyl]carbamate]  0.67 µM
3. CCCN(NC(=O)[C@H](CC(C)C)NC(=O)OCc1ccccc1)C(=O)CCl [Example 21, Benzyl N-[(1S)-1-[[(2-chloroacetyl)-propyl-amino]carbamoyl]-3-methyl-butyl]carbamate]  0.39 µM
4. CC(C)C[C@H](NC(=O)OCc1ccccc1)C(=O)NN(CCC(N)=O)C(=O)C(C)Cl (stereo partly drawn) [Example 4, Benzyl N-[(1S)-1-[[(3-amino-3-oxo-propyl)-(2-chloropropanoyl)amino]carbamoyl]-3-methyl-butyl]carbamate]  0.33 µM
5. CC(C)C[C@H](NC(=O)c1cc2ccccn2n1)C(=O)NN(CCC(N)=O)C(=O)C(F)Cl (mixture of isomers) [Example 90, N,N-[rac-(1S)-1-[[(3-amino-3-oxo-propyl)-(2-chloro-2-fluoro-acetyl)amino]carbamoyl]-3-methyl-butyl]pyrazolo[1,5-a]pyridine-2-carboxamide]  0.073 µM
6. Cc1nc(C(=O)N[C@@H](CC(C)C)C(=O)NN(CCC(N)=O)C(=O)CCl)co1 [Example 45, N-[(1S)-1-[[(3-Amino-3-oxo-propyl)-(2-chloroacetyl)amino]carbamoyl]-3-methyl-butyl]-2-methyl-oxazole-4-carboxamide]  0.046 µM
7. NC(=O)CCN(NC(=O)[C@H](CC1CC1)NC(=O)OCc1ccccc1)C(=O)CCl [Example 11, Benzyl N-[(1S)-2-[2-(3-amino-3-oxo-propyl)-2-(2-chloroacetyl)hydrazino]-1-(cyclopropylmethyl)-2-axo-ethyl]carbamate]  0.023 µM
8. COc1cccc2[nH]c(C(=O)N[C@@H](CC(C)C)C(=O)NN(CCC(N)=O)C(=O)C(F)Cl)cc12 (stereo partly drawn) [Example 49, 4-Methoxy-N-[(1S)-1-[[(3-amino-3-oxo-propyl)-(2-chloro-2-fluoro-acetyl)amino]carbamoyl]-3-methyl-butyl]-1H-indole-2-carboxamide]  0.015 µM
9. COc1cc2cc(C(=O)N[C@@H](CC(C)C)C(=O)NN(CCC(N)=O)C(=O)CCl)nc-2c[nH]1 [Example 47, N-[(1S)-1-[[(3-Amino-3-oxo-propyl)-(2-chloroacetyl)amino]carbamoyl]-3-methyl-butyl]-5-methoxy-6H-pyrrolo[2,3-c]pyridine-2-carboxamide]  0.014 µM
10. CC(C)C[C@H](NC(=O)c1cc2cnccc2[nH]1)C(=O)NN(CCC(N)=O)C(=O)CCl [Example 52, N-[(1S)-1-[[(3-amino-3-oxo-propyl)-(2-chloroacetyl)amino]carbamoyl]-3-methyl-butyl]-1H-pyrrolo[3,2-c]pyridine-2-carboxamide]  0.014 µM
11. COc1cccc2[nH]c(C(=O)N[C@@H](CC3CCCCC3)C(=O)NN(CCC(N)=O)C(=O)[C@H](F)Cl)cc12 [Example 56-A, N-[(1S)-2-[2-(3-amino-3-oxo-propyl)-2-[(2R)-2-chloro-2-fluoro-acetyl]hydrazino]-1-(cyclohexylmethyl)-2-axo-ethyl]-4-methoxy-1H-indole-2-carboxamide]  0.008 µM
12. NC(=O)CCN(NC(=O)[C@H](CC1CCCCC1)NC(=O)OCc1ccccc1)C(=O)CCl [Example 8, Benzyl N-[(1S)-2-[2-(3-amino-3-oxo-propyl)-2-(2-chloroacetyl)hydrazino]-1-(cyclohexylmethyl)-2-axo-ethyl]carbamate]  0.008 µM
13. NC(=O)CCN(NC(=O)[C@H](CC1CCCC1)NC(=O)OCc1ccccc1)C(=O)CCl [Example 10, Benzyl N-[(1S)-2-[2-(3-amino-3-oxo-propyl)-2-(2-chloroacetyl)hydrazino]-1-(cyclopentylmethyl)-2-axo-ethyl]carbamate]  0.006 µM
14. CC(C)C[C@H](NC(=O)/C=C/c1ccc(Cl)cc1F)C(=O)NN(CCC(N)=O)C(=O)CCl [Example 34, 3-[(2-Chloroacetyl)-[[(2S)-2-[[(E)-3-(4-chloro-2-fluoro-phenyl)prop-2-enoyl]amino]-4-methyl-pentanoyl]amino]amino]propanamide]  0.005 µM
15. CC(C)C[C@H](NC(=O)c1nc2ccccc2[nH]1)C(=O)NN(CCC(N)=O)C(=O)CCl [Example 42, N-[(1S)-1-[[(3-Amino-3-axo-propyl)-(2-chloroacetyl)amino]carbamoyl]-3-methyl-butyl]-1H-benzimidazole-2-carboxamide]  0.005 µM
16. NC(=O)CCN(NC(=O)[C@H](CC1CCCCC1)NC(=O)c1cc2ccccc2[nH]1)C(=O)CCl [Example 35, N-[(1S)-2-[2-(3-Amino-3-axo-propyl)-2-(2-chloroacetyl)hydrazino]-1-(cyclohexylmethyl)-2-axo-ethyl]-1H-indole-2-carboxamide]  0.002 µM
17. CN(C(=O)c1cc2ccccc2[nH]1)[C@@H](CC1CCCCC1)C(=O)NN(CCC(N)=O)C(=O)CCl [Example 39, N-[(1S)-2-[2-(3-Amino-3-axo-propyl)-2-(2-chloroacetyl)hydrazino]-1-(cyclohexylmethyl)-2-axo-ethyl]-N-methyl-1H-indole-2-carboxamide]  0.002 µM
